Calls of active or inactive are those of the source. How the calls were made is not given here.
Tested on: rodent carcinogenicity bioassays, tumor incidence
Assay: CCRIS carcinogenicity studies
Conditions: Dose: 0, Dose: 0
How it was run: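 NCI-built, expert-reviewed records of carcinogenicity and related test outcomes (mutagenicity, tumor promotion/inhibition) compiled from published and report sources, historical span 1985-2011, not updated.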

O=P(OCCCl)(OCCCl)OCCCl
carcinogen call (Species: MOUSE, Strain/Sex: B6C3F1/FEMALE, Route: GAVAGE, 175, 350 MG/KG IN CORN OIL 5 D/WK FOR 103 (STUDY DURATION: 104 WK), 175, 350 MG/KG IN CORN OIL 5 D/WK FOR 103 (STUDY DURATION: 104 WK), Tumor Site: Type of Lesion: HARDERIAN GLAND: ADENOMA OR CARCINOMA): equivocal
carcinogen call (Species: MOUSE, Strain/Sex: B6C3F1/MALE, Route: GAVAGE, 175, 350 MG/KG IN CORN OIL 5 D/WK FOR 103 (STUDY DURATION: 104 WK), 175, 350 MG/KG IN CORN OIL 5 D/WK FOR 103 (STUDY DURATION: 104 WK), Tumor Site: Type of Lesion: KIDNEY (RENAL TUBULE): ADENOMA, CARCINOMA): equivocal
carcinogen call (Species: MOUSE, Strain/Sex: DDY/FEMALE, Route: ORAL, 0.012, 0.06, 0.3, 1.5% IN DIET FOR 18 MO (STUDY DURATION: 18 MO), 0.012, 0.06, 0.3, 1.5% IN DIET FOR 18 MO (STUDY DURATION: 18 MO), Tumor Site: Type of Lesion: HEMATOPOIETIC SYSTEM: LEUKEMIA, FORESTOMACH: PAPILLOMA, CARCINOMA): active; positive
carcinogen call (Species: MOUSE, Strain/Sex: DDY/MALE, Route: ORAL, 0.012, 0.06, 0.3, 1.5% IN DIET FOR 18 MO (STUDY DURATION: 18 MO), 0.012, 0.06, 0.3, 1.5% IN DIET FOR 18 MO (STUDY DURATION: 18 MO), Tumor Site: Type of Lesion: LIVER: HEPATOCELLULAR ADENOMA, HEPATOCELLULAR CARCINOMA, KIDNEY: RENAL CELL ADENOMA, RENAL CELL CARCINOMA): active; positive
carcinogen call (Species: MOUSE, Strain/Sex: SLC:DDY/FEMALE, Route: DERMAL, 5, 50% IN ETHANOL 2/WK FOR 79 WK (STUDY DURATION: 18 MO), 5, 50% IN ETHANOL 2/WK FOR 79 WK (STUDY DURATION: 18 MO)): inactive; negative
carcinogen call (Species: RAT, Strain/Sex: F344/FEMALE, Route: GAVAGE, 44, 88 MG/KG IN CORN OIL 5 D/WK FOR 103 (STUDY DURATION: 104 WK), 44, 88 MG/KG IN CORN OIL 5 D/WK FOR 103 (STUDY DURATION: 104 WK), Tumor Site: Type of Lesion: KIDNEY (RENAL TUBULE): ADENOMA): active; positive
carcinogen call (Species: RAT, Strain/Sex: F344/MALE, Route: GAVAGE, 44, 88 MG/KG IN CORN OIL 5 D/WK FOR 103 (STUDY DURATION: 104 WK), 44, 88 MG/KG IN CORN OIL 5 D/WK FOR 103 (STUDY DURATION: 104 WK), Tumor Site: Type of Lesion: KIDNEY (RENAL TUBULE): ADENOMA OR CARCINOMA, HEMATOPOIETIC SYSTEM: LEUKEMIA (MONONUCLEAR)): active; positive

Nc1ccc(Sc2ccc(N)cc2)cc1
carcinogen call (Species: MOUSE, Strain/Sex: B6C3F1/FEMALE, Route: ORAL, 2500, 5000 PPM IN DIET, 2500, 5000 PPM IN DIET, Tumor Site: Type of Lesion: LIVER: HEPATOCELLULAR CARCINOMA, THYROID GLAND: FOLLICULAR CELL ADENOMA OR CARCINOMA): active; positive
carcinogen call (Species: MOUSE, Strain/Sex: B6C3F1/MALE, Route: ORAL, 2500, 5000 PPM IN DIET, 2500, 5000 PPM IN DIET, Tumor Site: Type of Lesion: LIVER: HEPATOCELLULAR ADENOMA OR CARCINOMA, THYROID GLAND: FOLLICULAR CELL ADENOMA OR CARCINOMA): active; positive
carcinogen call (Species: RAT, Strain/Sex: F344/FEMALE, Route: ORAL, 1500, 3000 PPM IN DIET, 1500, 3000 PPM IN DIET, Tumor Site: Type of Lesion: THYROID GLAND: FOLLICULAR CELL CARCINOMA, UTERUS: ADENOCARCINOMA, NOS): active; positive
carcinogen call (Species: RAT, Strain/Sex: F344/MALE, Route: ORAL, 1500, 3000 PPM IN DIET (68-72 WEEKS), 1500, 3000 PPM IN DIET (68-72 WEEKS), Tumor Site: Type of Lesion: LIVER: HEPATOCELLULAR ADENOMA OR CARCINOMA, COLON: ADENOCARCINOMA, NOS, THYROID GLAND: FOLLICULAR CELL ADENOMA OR CARCIN, Tumor Site: Type of Lesion: LIVER: HEPATOCELLULAR ADENOMA OR CARCINOMA, COLON: ADENOCARCINOMA, NOS, THYROID GLAND: FOLLICULAR CELL ADENOMA OR CARCIN): active; positive

Nc1ccc(O)c(N)c1
carcinogen call (Species: MOUSE, Strain/Sex: B6C3F1/FEMALE, Route: GAVAGE, 19, 38 MG/KG IN CORN OIL 5 D/WK FOR 104 WK (STUDY DURATION: 2 YR), 19, 38 MG/KG IN CORN OIL 5 D/WK FOR 104 WK (STUDY DURATION: 2 YR)): inactive; negative
carcinogen call (Species: RAT, Strain/Sex: F344/FEMALE, Route: GAVAGE, 12.5, 25 MG/KG IN CORN OIL 5 D/WK FOR 104 WK (STUDY DURATION: 2 YR), 12.5, 25 MG/KG IN CORN OIL 5 D/WK FOR 104 WK (STUDY DURATION: 2 YR)): inactive; negative
carcinogen call (Species: RAT, Strain/Sex: F344/MALE, Route: GAVAGE, 12.5, 25 MG/KG IN CORN OIL 5 D/WK FOR 104 WK (STUDY DURATION: 2 YR)): inactive; negative

NC(Cc1cnc[nH]1)C(=O)O (stereo unspecified)
carcinogen call (Species: RAT, Strain/Sex: F344/FEMALE, Route: ORAL, 1.25, 2.5% IN DIET FOR 104 WK (STUDY DURATION: 107 WK), 1.25, 2.5% IN DIET FOR 104 WK (STUDY DURATION: 107 WK)): inactive; negative
carcinogen call (Species: RAT, Strain/Sex: F344/MALE, Route: ORAL, 1.25, 2.5% IN DIET FOR 104 WK (STUDY DURATION: 107 WK), 1.25, 2.5% IN DIET FOR 104 WK (STUDY DURATION: 107 WK)): inactive; negative
